Results on 1 molecule are retold here after US7098215B2, “Nitrogenous compounds and antiviral drugs containing the same” (Kureha Chemical Industry Co., Ltd., priority 2000, dated 2006).

In one data set the test system is ICR male mice. Description: Acute toxicity in ICR mice, intraperitoneal administration. To be noted: 3 per group, 50 mg/kg intraperitoneally, twice a day, for four days, number of dead animals after 5 days. It is filed as in vivo. On the procedure:
Acute toxicity of the antiviral drug was examined. Three groups of 7 week-old, ICR male mice, each group consisting of 3 mice, were bred for one week. The compounds prepared in the Examples, dissolved in a physiological saline solution or distilled water, were intraperitoneally administered at a dose of 50 mg/kg, twice a day, for four days. After 5 days, the number of dead animals was examined.

Data set [1] deals with HIV-1IIIB infected MT-4 cells. Description: Anti-HIV activity: protection of HIV-1IIIB infected MT-4 cells, MTT method. The class given is cell-based. The conditions noted are these: MOI 0.01, culture for 5 days, concentration inhibiting 50% of cytotoxicity due to HIV infection. On the procedure: HIV-1IIIB infected MT-4 cells were added to 96-well microtiter plates (3.0×10^4/well, MOI (Multiplicity of infection): 0.01), together with test compounds at different concentrations immediately after the infection. After culture for 5 days in a carbon dioxide incubator at 37° C., the number of surviving cells was counted by MTT (tetrazolium) method (Pawels et al., J. Virol. Methods, 20, 309-321, 1988).
(In general: Tetrazolium dyes change colour on reduction, which living cells bring about.)

In a further data set the test system is HIV-1 (NL4-3). In words: Antiviral effect in SCID mice transplanted with human PBMCs and infected with HIV-1 (NL4-3), HIV-1 p24 by ELISA. It is filed as in vivo. To be noted: SCID mice with human PBMCs, virus NL4-3, 0.1 ml/2 mM solution/mouse intraperitoneally, 12 days after infection. On the procedure: The effect of the antiviral drug on SCID mice (immunodeficiency mice) was examined.
TMβ-1 (rat anti-mouse IL-2Rβ monoclonal antibody) was intraperitoneally administered to C.B-17 SCID mice (8 weeks-old, female, provided by CLEA Japan, Inc.) in the amount of 1 mg/mouse to exterminate NK cells. After 2 days, 1.5×10^6 human PBMCs were transplanted in the spleen together with human rIL-4 (0.2 μg/mouse). On the same day, the compound No. 86 (0.1 ml/2 mM solution/mouse) or a medium (0.1 ml) (control) was intraperitoneally administered. After 1 day, HIV-1 (NL4-3) (0.2 ml/1×10^4 TCID50/ml) was intraperitoneally administered to cause virus infection. The same amount of the compound No. 86 (or the medium) was intraperitoneally administered on each of 4 consecutive days thereafter. rIL-4 (0.2 μg) was also intraperitoneally administered 4 days after infection. 12 days after infection, blood plasma and abdominal cavity washing solutions were collected to measure the amount of HIV-1 P^24 using an ELISA kit.
(An ELISA detects its analyte on a solid surface through an enzyme-linked reagent.)

SMILES strings stand for the structures.

With `C[C@H](NC(=O)[C@H](CCCN=C(N)N)NC(=O)c1ccc(CNCc2ccccn2)cc1)c1cccc2ccccc12` [Compound No. 86, N^α-(4-(N-2-picolylaminomethyl)benzoyl)-L-arginine (1′S)-1′-(1-naphthyl)ethylamide], the Dead mouse with ICR male mice is 0/3. The EC50 in data set [1] amounted to 0.043 µM. In the data set with HIV-1 (NL4-3), the “p24 level Abdominal cavity washing solution” value is <5 pg/mL and the “p24 level Plasma” value is <5 pg/mL.

For orientation: EC50 means the concentration at which the effect is half-maximal.
